Experimental data from ChEMBL document CHEMBL5653615 (J Biol Chem, 2013).

Assays:
[1] = target: T1, Serine/threonine-protein kinase Nek9 (Homo sapiens) (UniProt Q8TD19); experiment: Inhibition of human NEK9 at 500 nM by HotSpot assay relative to control
T1 sequence (whole entry): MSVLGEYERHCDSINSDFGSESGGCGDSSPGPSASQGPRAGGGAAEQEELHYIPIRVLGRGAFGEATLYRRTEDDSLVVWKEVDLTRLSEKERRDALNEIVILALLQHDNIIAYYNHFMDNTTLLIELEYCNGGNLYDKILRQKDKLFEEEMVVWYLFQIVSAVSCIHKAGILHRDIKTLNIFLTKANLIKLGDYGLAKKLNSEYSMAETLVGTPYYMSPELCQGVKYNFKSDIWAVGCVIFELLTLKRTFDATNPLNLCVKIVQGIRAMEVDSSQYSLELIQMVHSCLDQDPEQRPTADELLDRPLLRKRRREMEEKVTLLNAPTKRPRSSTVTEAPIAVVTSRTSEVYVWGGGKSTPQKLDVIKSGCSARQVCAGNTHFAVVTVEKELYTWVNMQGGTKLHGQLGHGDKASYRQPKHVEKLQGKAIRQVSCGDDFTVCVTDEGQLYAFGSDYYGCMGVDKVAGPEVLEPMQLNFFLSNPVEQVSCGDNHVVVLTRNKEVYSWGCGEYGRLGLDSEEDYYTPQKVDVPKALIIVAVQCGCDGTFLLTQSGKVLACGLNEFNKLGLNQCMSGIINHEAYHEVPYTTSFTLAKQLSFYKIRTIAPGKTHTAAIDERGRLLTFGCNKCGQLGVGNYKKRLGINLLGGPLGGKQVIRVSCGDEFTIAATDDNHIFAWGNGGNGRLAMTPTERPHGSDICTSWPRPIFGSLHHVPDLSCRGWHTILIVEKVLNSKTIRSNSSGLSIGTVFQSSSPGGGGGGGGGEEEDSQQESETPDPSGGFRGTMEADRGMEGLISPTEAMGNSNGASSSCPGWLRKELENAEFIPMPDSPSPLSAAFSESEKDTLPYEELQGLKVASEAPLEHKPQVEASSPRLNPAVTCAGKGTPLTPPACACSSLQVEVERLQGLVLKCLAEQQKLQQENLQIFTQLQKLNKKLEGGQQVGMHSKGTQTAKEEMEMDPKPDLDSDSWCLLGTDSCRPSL

[2] = target: Tyrosine-protein kinase HCK (Homo sapiens) (UniProt P08631); experiment: Inhibition of human HCK at 500 nM by HotSpot assay relative to control
Sequence of Tyrosine-protein kinase HCK (Homo sapiens) (P08631 2-526 limits assumed): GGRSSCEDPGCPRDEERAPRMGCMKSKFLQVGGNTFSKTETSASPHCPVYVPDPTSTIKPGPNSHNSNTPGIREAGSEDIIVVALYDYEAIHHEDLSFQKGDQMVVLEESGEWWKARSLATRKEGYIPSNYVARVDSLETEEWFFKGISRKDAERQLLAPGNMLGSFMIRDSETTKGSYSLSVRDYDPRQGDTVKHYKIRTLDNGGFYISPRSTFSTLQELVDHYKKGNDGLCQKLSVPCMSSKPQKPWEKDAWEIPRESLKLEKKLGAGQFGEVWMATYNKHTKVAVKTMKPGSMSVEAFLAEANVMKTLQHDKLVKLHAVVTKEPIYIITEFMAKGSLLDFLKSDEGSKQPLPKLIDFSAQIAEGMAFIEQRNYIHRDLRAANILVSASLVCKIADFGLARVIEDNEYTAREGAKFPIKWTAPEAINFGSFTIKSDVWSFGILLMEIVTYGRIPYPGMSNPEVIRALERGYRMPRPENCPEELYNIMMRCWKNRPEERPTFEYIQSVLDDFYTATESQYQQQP

[3] = target: Protein kinase C beta type (Homo sapiens) (UniProt P05771); experiment: Inhibition of human PKCb2 at 500 nM by HotSpot assay relative to control
[4] = target: MAP kinase-interacting serine/threonine-protein kinase 2 (Homo sapiens) (UniProt Q9HBH9); experiment: Inhibition of human MNK2 at 500 nM by HotSpot assay relative to control
Sequence of MAP kinase-interacting serine/threonine-protein kinase 2 (Homo sapiens) (Q9HBH9 whole entry, looked up): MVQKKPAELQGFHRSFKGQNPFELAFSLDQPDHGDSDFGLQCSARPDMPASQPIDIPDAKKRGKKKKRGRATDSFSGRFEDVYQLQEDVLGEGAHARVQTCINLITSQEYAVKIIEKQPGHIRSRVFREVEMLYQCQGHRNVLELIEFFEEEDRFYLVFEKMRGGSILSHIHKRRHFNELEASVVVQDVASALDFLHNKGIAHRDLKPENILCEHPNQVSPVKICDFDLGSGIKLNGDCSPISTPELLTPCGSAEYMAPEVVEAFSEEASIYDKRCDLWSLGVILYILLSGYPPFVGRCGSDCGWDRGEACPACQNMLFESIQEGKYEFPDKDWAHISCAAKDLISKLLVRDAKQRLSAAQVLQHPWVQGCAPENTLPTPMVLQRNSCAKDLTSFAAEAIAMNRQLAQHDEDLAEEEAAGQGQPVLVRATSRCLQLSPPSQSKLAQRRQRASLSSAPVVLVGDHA

[5] = target: Vascular endothelial growth factor receptor 3 (Homo sapiens) (UniProt P35916); experiment: Inhibition of human FLT4 at 500 nM by HotSpot assay relative to control
Sequence of Vascular endothelial growth factor receptor 3 (Homo sapiens) (P35916 whole entry): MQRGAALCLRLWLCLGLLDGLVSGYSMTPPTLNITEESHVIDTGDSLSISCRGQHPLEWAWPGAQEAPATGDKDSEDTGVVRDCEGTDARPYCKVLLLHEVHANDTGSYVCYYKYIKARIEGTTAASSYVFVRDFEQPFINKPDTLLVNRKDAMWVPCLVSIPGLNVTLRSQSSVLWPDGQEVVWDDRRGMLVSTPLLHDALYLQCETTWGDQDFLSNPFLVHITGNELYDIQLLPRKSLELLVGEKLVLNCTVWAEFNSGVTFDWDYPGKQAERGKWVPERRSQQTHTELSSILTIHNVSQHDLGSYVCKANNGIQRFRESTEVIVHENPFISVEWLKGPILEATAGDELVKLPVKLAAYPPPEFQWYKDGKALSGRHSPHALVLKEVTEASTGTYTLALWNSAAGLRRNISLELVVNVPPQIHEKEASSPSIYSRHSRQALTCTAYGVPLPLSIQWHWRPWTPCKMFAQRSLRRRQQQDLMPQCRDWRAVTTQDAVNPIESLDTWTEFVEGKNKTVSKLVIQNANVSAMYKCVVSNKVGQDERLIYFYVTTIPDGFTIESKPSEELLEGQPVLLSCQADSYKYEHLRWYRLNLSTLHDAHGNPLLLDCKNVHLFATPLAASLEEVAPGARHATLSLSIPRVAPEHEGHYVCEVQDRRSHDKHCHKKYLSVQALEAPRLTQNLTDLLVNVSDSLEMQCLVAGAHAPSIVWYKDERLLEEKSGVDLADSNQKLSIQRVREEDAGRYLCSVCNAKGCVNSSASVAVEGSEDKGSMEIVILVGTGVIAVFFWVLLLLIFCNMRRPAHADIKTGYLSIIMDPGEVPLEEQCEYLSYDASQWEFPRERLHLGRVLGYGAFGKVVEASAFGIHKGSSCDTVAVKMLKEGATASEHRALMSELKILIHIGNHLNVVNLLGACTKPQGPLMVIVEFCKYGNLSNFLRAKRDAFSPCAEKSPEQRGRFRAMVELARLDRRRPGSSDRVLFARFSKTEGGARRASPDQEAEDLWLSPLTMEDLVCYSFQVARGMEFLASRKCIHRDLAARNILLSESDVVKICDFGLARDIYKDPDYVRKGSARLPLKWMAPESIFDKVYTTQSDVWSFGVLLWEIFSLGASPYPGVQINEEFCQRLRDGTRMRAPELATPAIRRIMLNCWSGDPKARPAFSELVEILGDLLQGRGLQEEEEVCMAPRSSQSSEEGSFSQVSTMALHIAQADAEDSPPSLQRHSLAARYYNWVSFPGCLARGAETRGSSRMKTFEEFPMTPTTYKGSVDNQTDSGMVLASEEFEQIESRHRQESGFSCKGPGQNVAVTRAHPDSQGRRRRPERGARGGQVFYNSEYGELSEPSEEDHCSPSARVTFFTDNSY

[6] = target: Leucine-rich repeat serine/threonine-protein kinase 2 (Homo sapiens) (UniProt Q5S007); experiment: Inhibition of human LRRK2 at 500 nM by HotSpot assay relative to control
Sequence of Leucine-rich repeat serine/threonine-protein kinase 2 (Homo sapiens) (Q5S007 whole entry): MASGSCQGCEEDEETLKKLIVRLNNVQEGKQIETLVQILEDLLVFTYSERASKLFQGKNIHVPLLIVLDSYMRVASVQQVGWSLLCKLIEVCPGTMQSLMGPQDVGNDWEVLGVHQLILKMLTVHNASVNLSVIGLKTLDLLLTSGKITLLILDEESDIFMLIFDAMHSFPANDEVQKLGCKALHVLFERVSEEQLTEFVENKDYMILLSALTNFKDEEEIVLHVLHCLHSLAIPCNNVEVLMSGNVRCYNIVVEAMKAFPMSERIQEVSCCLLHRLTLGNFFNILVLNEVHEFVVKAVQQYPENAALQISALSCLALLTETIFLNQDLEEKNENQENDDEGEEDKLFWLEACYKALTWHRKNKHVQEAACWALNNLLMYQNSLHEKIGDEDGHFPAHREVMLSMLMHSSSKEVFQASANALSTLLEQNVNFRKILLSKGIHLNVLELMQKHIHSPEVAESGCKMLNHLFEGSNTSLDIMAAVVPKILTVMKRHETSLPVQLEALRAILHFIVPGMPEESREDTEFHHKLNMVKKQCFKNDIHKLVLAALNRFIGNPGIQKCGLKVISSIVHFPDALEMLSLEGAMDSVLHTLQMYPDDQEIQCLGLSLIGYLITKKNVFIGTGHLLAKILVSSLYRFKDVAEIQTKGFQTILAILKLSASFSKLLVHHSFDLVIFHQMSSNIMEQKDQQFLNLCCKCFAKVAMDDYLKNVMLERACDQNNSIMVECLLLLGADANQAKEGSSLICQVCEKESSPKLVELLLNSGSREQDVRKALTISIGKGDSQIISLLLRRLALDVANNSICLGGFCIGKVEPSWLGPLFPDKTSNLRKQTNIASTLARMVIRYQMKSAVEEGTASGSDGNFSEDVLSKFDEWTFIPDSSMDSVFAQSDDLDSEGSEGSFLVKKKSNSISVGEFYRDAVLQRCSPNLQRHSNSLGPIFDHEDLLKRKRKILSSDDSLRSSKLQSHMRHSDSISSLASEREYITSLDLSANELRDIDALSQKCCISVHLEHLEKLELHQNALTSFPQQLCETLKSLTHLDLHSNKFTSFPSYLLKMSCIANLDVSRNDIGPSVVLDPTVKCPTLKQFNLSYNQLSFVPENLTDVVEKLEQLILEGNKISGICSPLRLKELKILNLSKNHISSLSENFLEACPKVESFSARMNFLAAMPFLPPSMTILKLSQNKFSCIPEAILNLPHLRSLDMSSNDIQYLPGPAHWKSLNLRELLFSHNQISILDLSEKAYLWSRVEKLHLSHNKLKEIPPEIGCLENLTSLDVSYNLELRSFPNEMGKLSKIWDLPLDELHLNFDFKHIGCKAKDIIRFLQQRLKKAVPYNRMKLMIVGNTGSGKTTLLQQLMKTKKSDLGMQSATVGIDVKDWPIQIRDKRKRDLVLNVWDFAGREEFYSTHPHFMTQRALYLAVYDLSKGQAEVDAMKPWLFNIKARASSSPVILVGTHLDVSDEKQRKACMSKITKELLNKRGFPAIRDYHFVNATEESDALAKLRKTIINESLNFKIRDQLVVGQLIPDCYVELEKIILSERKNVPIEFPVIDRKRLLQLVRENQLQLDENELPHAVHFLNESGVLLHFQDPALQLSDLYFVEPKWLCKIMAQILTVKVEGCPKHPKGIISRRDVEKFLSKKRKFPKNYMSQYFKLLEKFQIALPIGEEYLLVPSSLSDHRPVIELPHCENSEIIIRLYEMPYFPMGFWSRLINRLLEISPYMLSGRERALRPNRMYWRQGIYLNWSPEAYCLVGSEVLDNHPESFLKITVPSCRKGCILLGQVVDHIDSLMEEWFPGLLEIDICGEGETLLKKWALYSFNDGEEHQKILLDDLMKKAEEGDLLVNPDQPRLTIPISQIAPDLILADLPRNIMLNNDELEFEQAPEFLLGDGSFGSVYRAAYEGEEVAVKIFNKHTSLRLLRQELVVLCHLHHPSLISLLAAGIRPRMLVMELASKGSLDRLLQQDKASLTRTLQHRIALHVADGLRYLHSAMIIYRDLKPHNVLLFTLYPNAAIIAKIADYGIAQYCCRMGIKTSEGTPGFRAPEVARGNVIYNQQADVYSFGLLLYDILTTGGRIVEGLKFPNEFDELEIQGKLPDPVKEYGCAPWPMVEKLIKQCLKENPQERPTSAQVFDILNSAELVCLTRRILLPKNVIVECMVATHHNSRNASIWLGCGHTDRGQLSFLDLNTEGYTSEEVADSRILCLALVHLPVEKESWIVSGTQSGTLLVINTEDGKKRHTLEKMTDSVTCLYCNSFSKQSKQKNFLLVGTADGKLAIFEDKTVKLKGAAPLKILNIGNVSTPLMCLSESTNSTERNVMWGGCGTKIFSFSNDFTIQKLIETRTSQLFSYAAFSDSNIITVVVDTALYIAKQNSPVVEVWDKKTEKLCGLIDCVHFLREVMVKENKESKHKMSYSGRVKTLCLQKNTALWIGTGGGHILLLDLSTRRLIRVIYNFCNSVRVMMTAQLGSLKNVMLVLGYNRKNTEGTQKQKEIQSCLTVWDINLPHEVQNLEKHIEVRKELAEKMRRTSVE

[7] = target: T2, NUAK family SNF1-like kinase 2 (Homo sapiens) (UniProt Q9H093); experiment: Inhibition of human NUAK2 at 500 nM by HotSpot assay relative to control
T2 sequence (whole entry): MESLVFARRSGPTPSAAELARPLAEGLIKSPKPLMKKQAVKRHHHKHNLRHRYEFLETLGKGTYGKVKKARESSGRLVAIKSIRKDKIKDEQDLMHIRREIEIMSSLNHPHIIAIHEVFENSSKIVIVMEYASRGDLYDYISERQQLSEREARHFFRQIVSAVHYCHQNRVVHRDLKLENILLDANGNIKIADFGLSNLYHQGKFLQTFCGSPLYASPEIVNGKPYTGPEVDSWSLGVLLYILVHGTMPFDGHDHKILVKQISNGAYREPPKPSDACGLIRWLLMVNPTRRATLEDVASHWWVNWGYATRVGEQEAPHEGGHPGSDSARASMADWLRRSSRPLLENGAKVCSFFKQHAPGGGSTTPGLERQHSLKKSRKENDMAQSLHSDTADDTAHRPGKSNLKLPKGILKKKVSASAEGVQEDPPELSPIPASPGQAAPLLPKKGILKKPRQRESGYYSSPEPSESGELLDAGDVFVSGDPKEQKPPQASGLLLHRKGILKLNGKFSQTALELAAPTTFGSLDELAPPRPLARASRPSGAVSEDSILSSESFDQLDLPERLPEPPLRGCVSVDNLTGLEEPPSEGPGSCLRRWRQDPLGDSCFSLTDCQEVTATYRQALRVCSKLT

[8] = target: T3, Tyrosine-protein kinase Tec (Homo sapiens) (UniProt P42680); experiment: Inhibition of human TEC at 500 nM by HotSpot assay relative to control
T3 sequence (whole entry): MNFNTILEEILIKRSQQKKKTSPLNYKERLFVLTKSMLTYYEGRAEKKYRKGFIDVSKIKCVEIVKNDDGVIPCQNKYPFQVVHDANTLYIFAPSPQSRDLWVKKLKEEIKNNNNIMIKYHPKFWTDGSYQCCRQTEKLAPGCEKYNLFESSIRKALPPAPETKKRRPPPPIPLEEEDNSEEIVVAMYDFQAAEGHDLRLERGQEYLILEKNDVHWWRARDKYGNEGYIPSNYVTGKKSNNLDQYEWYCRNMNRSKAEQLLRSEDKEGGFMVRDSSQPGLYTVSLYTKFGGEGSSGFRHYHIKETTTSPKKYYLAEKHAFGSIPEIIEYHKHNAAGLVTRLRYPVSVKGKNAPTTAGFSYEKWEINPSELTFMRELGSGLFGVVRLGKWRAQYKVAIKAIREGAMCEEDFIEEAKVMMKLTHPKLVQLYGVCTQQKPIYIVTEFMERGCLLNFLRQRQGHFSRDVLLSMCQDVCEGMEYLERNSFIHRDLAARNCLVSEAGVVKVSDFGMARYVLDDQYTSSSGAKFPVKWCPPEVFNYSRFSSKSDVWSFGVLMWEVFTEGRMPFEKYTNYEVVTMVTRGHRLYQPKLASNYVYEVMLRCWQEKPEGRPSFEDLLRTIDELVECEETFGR

| SMILES | inhibition [1] [%] | inhibition [2] [%] | inhibition [3] [%] | inhibition [4] [%] | inhibition [5] [%] | inhibition [6] [%] | inhibition [7] [%] | inhibition [8] [%] |
| --- | --- | --- | --- | --- | --- | --- | --- | --- |
| Nc1n[nH]c2nnc(-c3c(-c4ccccc4)nn4ccccc34)cc12 | 6.65 | 8.92 | 0.34 | 1.7 | 10.1 | 8.17 | 12.7 | 3.88 |
| Oc1n[nH]c2nnc(-c3c(-c4ccccc4)nn4ccccc34)cc12 | 10.2 | 7.7 | -2.98 | -6.03 | 0.44 | -1.49 | -6.46 | -3 |
